Reference: patent publication US10246456B2, “IRAK4 inhibiting agents” (BIOGEN MA INC., priority 2014, dated 2019)

biological target: IRAK4 (Homo sapiens (Human), UniProt Q9NWZ3); assay: IRAK-4 AlphaScreen biochemical kinase assay; details: 1 nM IRAK4, 1 mM ATP, 3.5 h at RT
Procedure, shortened: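 AlphaScreen read-out: streptavidin beads bind the biotinylated peptide and protein A beads bind the anti-phosphothreonine antibody, so energy transfer reports phosphorylation of the peptide. The kinase is human IRAK-4.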

Sequence of IRAK4 (Q9NWZ3 whole entry, species assumed): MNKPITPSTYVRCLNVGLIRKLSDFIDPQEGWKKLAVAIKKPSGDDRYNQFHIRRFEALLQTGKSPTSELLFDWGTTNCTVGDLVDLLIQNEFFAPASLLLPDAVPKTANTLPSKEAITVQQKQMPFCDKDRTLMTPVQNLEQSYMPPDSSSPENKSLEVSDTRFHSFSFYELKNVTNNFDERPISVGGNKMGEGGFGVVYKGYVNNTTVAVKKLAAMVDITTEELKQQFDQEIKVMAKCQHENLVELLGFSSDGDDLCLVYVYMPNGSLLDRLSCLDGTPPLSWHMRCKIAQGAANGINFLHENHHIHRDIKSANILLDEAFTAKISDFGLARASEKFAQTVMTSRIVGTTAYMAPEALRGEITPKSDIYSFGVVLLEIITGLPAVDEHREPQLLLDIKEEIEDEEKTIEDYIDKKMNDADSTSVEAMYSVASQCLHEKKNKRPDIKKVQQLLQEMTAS

First: CNC(=O)c1cc(-c2cncc(N)c2)cc2c1cnn2-c1cccc(C(F)(F)F)n1 [Example 61, 6-(5-aminopyridin-3-yl)-N-methyl-1-(6-(trifluoromethyl)pyridin-2-yl)-1H-indazole-4-carboxamide]
Second: CC(=O)c1cccc(-c2cc(F)c3cnn(-c4cccc(C(F)(F)F)n4)c3c2)n1 [Example 207, 1-(6-(4-fluoro-1-(6-(trifluoromethyl)pyridin-2-yl)-1H-indazol-6-yl)pyridin-2-yl)ethanone]
The IC50 of the first is lower: < 100 nM for the first, 1000 to 10000 nM for the second. The first is the more potent here.

Compared with `CNC(=O)C(N)c1cccc(-c2ccc3cnn(-c4cccc(CO)n4)c3c2)n1` (stereo not shown) [Example 567, 2-amino-2-(6-(1-(6-(hydroxymethyl)pyridin-2-yl)-1H-indazol-6-yl)pyridin-2-yl)-N-methylacetamide], `CCC[C@H](N)c1cccc(-c2ccc3cnn(-c4cccc(CO)n4)c3c2)n1` [Example 145, (S)-(6-(6-(6-(1-aminobutyl)pyridin-2-yl)-1H-indazol-1-yl)pyridin-2-yl)methanol] is lower in IC50: 100 to 1000 nM for the first, < 100 nM for the second.

First: Cc1cccc(-n2ncc3ccc(-c4cccc(C(N)C(=O)O)n4)cc32)n1 (stereo not shown) [Example 273, 2-amino-2-(6-(1-(6-methylpyridin-2-yl)-1H-indazol-6-yl)pyridin-2-yl)acetic acid]
Second: Cc1cccc(-n2ncc3ccc(-c4cccc(C(C)N(C)C)n4)cc32)n1 (stereo not shown) [Example 232, N,N-dimethyl-1-(6-(1-(6-methylpyridin-2-yl)-1H-indazol-6-yl)pyridin-2-yl)ethanamine]
The IC50 of the first is lower: < 100 nM for the first, 100 to 1000 nM for the second. The first is the more potent here.

First: Cc1cccc(-n2ncc3ccc(-c4cncc(N)c4C)cc32)n1 [Example 10, 4-methyl-5-(1-(6-methylpyridin-2-yl)-1H-indazol-6-yl)pyridin-3-amine]
Second: Cc1cccc(-n2ncc3cc(F)c(-c4cncc(N)c4)cc32)n1 [Example 43, 5-(5-fluoro-1-(6-methylpyridin-2-yl)-1H-indazol-6-yl)pyridin-3-amine]
The IC50 of the first is higher: 1000 to 10000 nM for the first, 100 to 1000 nM for the second.

`Cc1cccc(-n2ncc3ccc(-c4cccc(CCN)n4)cc32)n1` [Example 254, 2-(6-(1-(6-methylpyridin-2-yl)-1H-indazol-6-yl)pyridin-2-yl)ethanamine] and `Cc1cccc(-n2ncc3ccc(-c4cccc(CC#N)n4)cc32)n1` [Example 249, 2-(6-(1-(6-methylpyridin-2-yl)-1H-indazol-6-yl)pyridin-2-yl)acetonitrile] fall in the same range of IC50: 100 to 1000 nM for the first, 100 to 1000 nM for the second.

Compared with `Cc1cccc(-n2ncc3ccc(-c4cc(C(N)=O)ccn4)cc32)n1` [Example 201, 2-(1-(6-methylpyridin-2-yl)-1H-indazol-6-yl)isonicotinamide], `Cc1cccc(-n2ncc3ccc(-c4nccc(CN)n4)cc32)n1` [Example 9, (2-(1-(6-methylpyridin-2-yl)-1H-indazol-6-yl)pyrimidin-4-yl)methanamine] is lower in IC50: > 10000 nM for the first, 100 to 1000 nM for the second.

`CCC[C@H](N)c1cccc(-c2cc(COC(F)(F)F)c3cnn(-c4cccc(CO)n4)c3c2)n1` [Example 579, (S)-(6-(6-(6-(1-aminobutyl)pyridin-2-yl)-4-((trifluoromethoxy)methyl)-1H-indazol-1-yl)pyridin-2-yl)methanol] and `CCC[C@H](N)c1cccc(-c2cc(OCCO)c3cnn(-c4cccc(CO)n4)c3c2)n1` [Example 426, (S)-2-((6-(6-(1-aminobutyl)pyridin-2-yl)-1-(6-(hydroxymethyl)pyridin-2-yl)-1H-indazol-4-yl)oxy)ethanol] cannot be ordered by IC50: < 100 nM for the first, < 100 nM for the second.

Compared with `CC(N)c1cccc(-c2ccc3cnn(-c4ccn(C)n4)c3c2)n1` (stereo not shown) [Example 137, 1-(6-(1-(1-methyl-1H-pyrazol-3-yl)-1H-indazol-6-yl)pyridin-2-yl)ethanamine], `CC(C)c1cccc(-n2ncc3ccc(-c4cccc(C(C)N)n4)cc32)n1` (stereo not shown) [Example 121, 1-(6-(1-(6-isopropylpyridin-2-yl)-1H-indazol-6-yl)pyridin-2-yl)ethanamine] is lower in IC50: 100 to 1000 nM for the first, < 100 nM for the second.

`CC(N)c1cccc(-c2ccc3cnn(-c4cccc(CCO)n4)c3c2)n1` (stereo not shown) [Example 314, 2-(6-(6-(6-(1-aminoethyl)pyridin-2-yl)-1H-indazol-1-yl)pyridin-2-yl)ethanol] and `CC(N)c1cccc(-c2ccc3cnn(-c4cccc(C(C)(C)O)n4)c3c2)n1` (stereo not shown) [Example 278, 2-(6-(6-(6-(1-aminoethyl)pyridin-2-yl)-1H-indazol-1-yl)pyridin-2-yl)propan-2-ol] cannot be ordered by IC50: < 100 nM for the first, < 100 nM for the second.

First: N#Cc1nccc(-c2ccc3cnn(-c4cccc(C(F)(F)F)n4)c3c2)n1 [Example 94, 4-(1-(6-(trifluoromethyl)pyridin-2-yl)-1H-indazol-6-yl)pyrimidine-2-carbonitrile]
Second: O=C1CCc2ccc(-c3ccc4cnn(-c5cccc(C(F)(F)F)n5)c4c3)nc21 [Example 210, 2-(1-(6-(trifluoromethyl)pyridin-2-yl)-1H-indazol-6-yl)-5H-cyclopenta[b]pyridin-7(6H)-one]
The IC50 of the first is lower: 1000 to 10000 nM for the first, > 10000 nM for the second. The first is the more potent here.

`CC[C@H](N)c1cccc(-c2cc(OCCOC)c3cnn(-c4cncc(CO)n4)c3c2)n1` [Example 482, (S)-(6-(6-(6-(1-aminopropyl)pyridin-2-yl)-4-(2-methoxyethoxy)-1H-indazol-1-yl)pyrazin-2-yl)methanol] and `COCCOc1cc(-c2cccc([C@@H](N)CCCO)n2)cc2c1cnn2-c1cncc(CO)n1` [Example 428, (S)-4-amino-4-(6-(1-(6-(hydroxymethyl)pyrazin-2-yl)-4-(2-methoxyethoxy)-1H-indazol-6-yl)pyridin-2-yl)butan-1-ol] cannot be ordered by IC50: < 100 nM for the first, < 100 nM for the second.

`COc1cc(-c2cccc([C@@H](N)CCCO)n2)cc2c1cnn2-c1cccc(CO)n1` [Example 409, (S)-4-amino-4-(6-(1-(6-(hydroxymethyl)pyridin-2-yl)-4-methoxy-1H-indazol-6-yl)pyridin-2-yl)butan-1-ol] and `CCC[C@H](N)c1cccc(-c2cc(OCC(C)(C)O)c3cnn(-c4cccc(CO)n4)c3c2)n1` [Example 471, (S)-1-((6-(6-(1-aminobutyl)pyridin-2-yl)-1-(6-(hydroxymethyl)pyridin-2-yl)-1H-indazol-4-yl)oxy)-2-methylpropan-2-ol] cannot be ordered by IC50: < 100 nM for the first, < 100 nM for the second.

`Cc1cccc(-n2ncc3ccc(-c4cccc(C(N)CC(F)(F)F)n4)cc32)n1` (stereo not shown) [Example 551, 3,3,3-trifluoro-1-(6-(1-(6-methylpyridin-2-yl)-1H-indazol-6-yl)pyridin-2-yl)propan-1-amine] and `Cc1cccc(-n2ncc3ccc(-c4cccc(C(C)(C)N)n4)cc32)n1` [Example 298, 2-(6-(1-(6-methylpyridin-2-yl)-1H-indazol-6-yl)pyridin-2-yl)propan-2-amine] fall in the same range of IC50: 100 to 1000 nM for the first, 100 to 1000 nM for the second.

`COCCOc1cc(-c2cccc(C3(N)COC3)n2)cc2c1cnn2-c1cccc(CO)n1` [Example 465, (6-(6-(6-(3-aminooxetan-3-yl)pyridin-2-yl)-4-(2-methoxyethoxy)-1H-indazol-1-yl)pyridin-2-yl)methanol] and `CCC[C@H](N)c1cccc(-c2cc(OCCS(C)(=O)=O)c3cnn(-c4cccc(CO)n4)c3c2)n1` [Example 470, (S)-(6-(6-(6-(1-aminobutyl)pyridin-2-yl)-4-(2-(methylsulfonyl)ethoxy)-1H-indazol-1-yl)pyridin-2-yl)methanol] fall in the same range of IC50: 100 to 1000 nM for the first, 100 to 1000 nM for the second.

First: Cc1cccc(-n2ncc3ccc(-c4csc(CN)n4)cc32)n1 [Example 252, (4-(1-(6-methylpyridin-2-yl)-1H-indazol-6-yl)thiazol-2-yl)methanamine]
Second: [2H][C@](N)(CCC)c1cccc(-c2ccc3cnn(-c4cccc(CO)n4)c3c2)n1 [Example 419, deutero (S)-(6-(6-(6-(1-aminobutyl)pyridin-2-yl)-1H-indazol-1-yl)pyridin-2-yl)methanol]
The IC50 of the first is higher: 100 to 1000 nM for the first, < 100 nM for the second. The second is the more potent here.

First: Cc1cccc(-n2ncc3c(N)cc(-c4cccc(C(C)N)n4)cc32)n1 (stereo not shown) [Example 100, 6-(6-(1-aminoethyl)pyridin-2-yl)-1-(6-methylpyridin-2-yl)-1H-indazol-4-amine]
Second: CCc1cc(-c2cccc(C(C)N)n2)cc2c1cnn2-c1cccc(C)n1 (stereo not shown) [Example 109, 1-(6-(4-ethyl-1-(6-methylpyridin-2-yl)-1H-indazol-6-yl)pyridin-2-yl)ethanamine]
The IC50 of the first is lower: < 100 nM for the first, 100 to 1000 nM for the second. The first is the more potent here.

`N#CC[C@H](N)c1cccc(-c2ccc3cnn(-c4cccc(CO)n4)c3c2)n1` [Example 591, (S)-3-amino-3-(6-(1-(6-(hydroxymethyl)pyridin-2-yl)-1H-indazol-6-yl)pyridin-2-yl)propanenitrile] and `CCC[C@H](N)c1cccc(-c2ccc3cnn(-c4cccc(C(C)O)n4)c3c2)n1` (single isomer, unassigned) [Example 417] cannot be ordered by IC50: < 100 nM for the first, < 100 nM for the second.

Compared with `CCC[C@H](N)c1cccc(-c2cc(C#CC(C)(C)O)c3cnn(-c4cccc(CO)n4)c3c2)n1` [Example 462, (S)-4-(6-(6-(1-aminobutyl)pyridin-2-yl)-1-(6-(hydroxymethyl)pyridin-2-yl)-1H-indazol-4-yl)-2-methylbut-3-yn-2-ol], `Cc1cc(-c2cc(-c3cccc([C@@H](N)CF)n3)cc3c2cnn3-c2cccc(CO)n2)nn1C` [Example 391, (R)-(6-(6-(6-(1-amino-2-fluoroethyl)pyridin-2-yl)-4-(1,5-dimethyl-1H-pyrazol-3-yl)-1H-indazol-1-yl)pyridin-2-yl)methanol] is lower in IC50: 1000 to 10000 nM for the first, < 100 nM for the second. The second is the more potent here.

`CCC[C@H](N)c1cccc(-c2ccc3cnn(-c4cccc(CO)c4)c3c2)n1` [Example 402, (S)-(3-(6-(6-(1-aminobutyl)pyridin-2-yl)-1H-indazol-1-yl)phenyl)methanol] and `C[C@H](N)c1cccc(-c2cc(-c3cccnn3)c3cnn(-c4cccc(CO)n4)c3c2)n1` [Example 394, (S)-(6-(6-(6-(1-aminoethyl)pyridin-2-yl)-4-(pyridazin-3-yl)-1H-indazol-1-yl)pyridin-2-yl)methanol] cannot be ordered by IC50: < 100 nM for the first, < 100 nM for the second.

`Cc1ccnc(-n2ncc3ccc(-c4cncc(N)c4)cc32)n1` [Example 36, 5-(1-(4-methylpyrimidin-2-yl)-1H-indazol-6-yl)pyridin-3-amine] and `Cc1cccc(-n2ncc3c(N(C)C)cc(-c4cccc(C(C)N)n4)cc32)n1` (stereo not shown) [Example 102, 6-(6-(1-aminoethyl)pyridin-2-yl)-N,N-dimethyl-1-(6-methylpyridin-2-yl)-1H-indazol-4-amine] cannot be ordered by IC50: < 100 nM for the first, < 100 nM for the second.
